# Laboratory results from patent US11571421B2, “GABAA positive allosteric modulator compounds for treatment of itch and/or dermatitis” (NeuroCycle Therapeutics, Inc., priority 2018, dated 2023).
# Legend:
# [1] = test system: Oxazolone-induced Itch Model in Male C57BL/6 Mice; experiment: Oxazolone-induced dermatitis model of chronic itch (Example 7); assay type: in vivo
# Protocol: In order to assess: the antipruritic effect of PF-06372865 in a clinically relevant disease, the development of a tolerance towards the antipruritic effect of PF-06372865, and the effect of PF-06372865 in reducing dermatitis after prolonged treatment, the oxazolone-induced dermatitis model of chronic itch is used. To this end, wild-type C57Bl/6 mice are treated with 100 μL of 10% oxazolone (4-Ethoxymethylene-2-phenyl-2-oxazolin-5-one) dissolved in acetone/olive oil (4:1) on the nape of the neck. From day 7 to day 31 these mice are treated every other day with 100 μL 1% oxazolone to induce and maintain dermatitis and chronic itch. From day 17 onward, mice are treated with intraperitoneal injection of vehicle or 10 mg/kg PF-06372865 for thirteen consecutive days. On day 31, mice are given either intraperitoneal injection of vehicle or PF-06372865 (10 mg/kg). The number of scratching bouts directed to the nape of the neck between 15 to 210 min after injection are recorded. […] This is independent of the treatment they received from day 7 to day 30. […] To quantify the severity of skin lesions, a dermatitis score are determined. Hemorrhage/erythema, dryness/scaring and hyperplasia (Yamada et. al. Exp Dermatol. 2016, 25, 611-617) are scored as 0 (none), 1 (mild), 2 (moderate) or 3 (severe) once per day resulting in a score between 0 and 9. […]
# [2] = test system: Histamine-Induced Itch Model in Male C57BL/6 Mice; experiment: Histamine-Induced Itch Model (Example 3); assay type: in vivo; settings: oral gavage 90 min before 100 μg histamine cheek injection; 1, 3, 10, 30 and 100 mg/kg
# Protocol: PF-06372865 (an alpha 2, alpha 3, and alpha 5 agonist; and an alpha 1 antagonist) is assessed for its antipruritic effects against a cheek injection of 100 μg histamine in wild-type C57BL/6 mice. The mice are dosed with PF-06372865 by oral gavage ninety (90) minutes before histamine injection. Doses of PF-06372865 are vehicle, 1, 3, 10, 30 and 100 mg/kg.
smiles,measurement,setting,value
CCn1cnc2c(-c3ccc(F)c(-c4ccc(S(=O)(=O)CC)cc4OC)c3)cnnc21 [PF-06372865],skin lesions (dermatitis score),[1]; 10 mg/kg intraperitoneal for thirteen consecutive days,significant reduction in skin lesions
same,scratching bouts compared to vehicle injection,"[1]; 10 mg/kg intraperitoneal on day 31, 15 to 210 min after injection",significant reduction in scratching bouts
same,"scratching bouts, histaminergic itch",[2],dose-dependent reduction of scratching bouts
